Data taken from ChEMBL document CHEMBL1201862, “PubChem BioAssay data set” (2004).
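Compound exposure: 48 hours, 5 concentrations, 96-well plates. GI50 = concentration required for 50% inhibition of growth.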 Activity calls are given as the source filed them. No stated cut-off is given here; in the data, active = GI50 up to about 1.1 µM and inactive = higher.

How the values were obtained:
Assay in all cases: NCI-60 cell line screen, 48 h
[1] = system: BT-549
[2] = system: DU-145
[3] = system: HCT-15
[4] = system: Hs-578T
[5] = system: KM12
[6] = system: M14
[7] = system: MOLT-4
[8] = system: NCI-H226
[9] = system: OVCAR-3
[10] = system: OVCAR-4
[11] = system: PC-3
[12] = system: RPMI-8226
[13] = system: SK-MEL-28
[14] = system: SK-MEL-2
[15] = system: SN12C
[16] = system: SNB-19
[17] = system: SW-620
[18] = system: TK-10
[19] = system: UO-31
[20] = system: SR

Compound | GI50 [1] | GI50 [2] | GI50 [3] [µM] | GI50 [4] | GI50 [5] | GI50 [6] | GI50 [7] | GI50 [8] | GI50 [9] | GI50 [10] | GI50 [11] | GI50 [12] | GI50 [13] | GI50 [14] | GI50 [15] | GI50 [16] | GI50 [17] | GI50 [18] | GI50 [19] | GI50 [20]
CN(C)N1C(=O)c2ccccc2NC1c1ccccc1 (stereo not drawn) | > 100 µM (inactive) | > 100 µM (inactive) | > 100 | > 100 µM (inactive) | > 100 µM (inactive) | > 100 µM (inactive) | > 100 µM (inactive) | > 100 µM (inactive) | > 100 µM (inactive) | > 100 µM (inactive) | > 100 µM (inactive) | > 100 µM (inactive) | > 100 µM (inactive) | > 100 µM (inactive) | > 100 µM (inactive) | > 100 µM (inactive) | > 100 µM (inactive) | > 100 µM (inactive) | > 100 µM (inactive) | –
CSc1nc2ccccc2c(=O)n1/N=C1\C(=O)N(CN2CCOCC2)c2ccc(Cl)cc21 | 15.6 µM (inactive) | 18.5 µM (inactive) | 22.9 | 44.2 µM (inactive) | 29.5 µM (inactive) | 26.5 µM (inactive) | 10.9 µM (inactive) | 53.3 µM (inactive) | 54.5 µM (inactive) | 33.8 µM (inactive) | 29 µM (inactive) | – | 56.2 µM (inactive) | 20.6 µM (inactive) | 48.2 µM (inactive) | 46.8 µM (inactive) | 17.6 µM (inactive) | 16.9 µM (inactive) | 28.1 µM (inactive) | –
O=c1[nH]c(=O)n([C@H]2C[C@H](O)[C@@H](CO)O2)cc1Br [BROXURIDINE] | > 100 µM (inactive) | > 100 µM (inactive) | > 63.5 | > 100 µM (inactive) | > 100 µM (inactive) | > 86.7 µM (inactive) | > 100 µM (inactive) | > 100 µM (inactive) | 25.9 µM (inactive) | > 100 µM (inactive) | > 100 µM (inactive) | 49.9 µM (inactive) | > 86.5 µM (inactive) | > 100 µM (inactive) | > 100 µM (inactive) | > 100 µM (inactive) | > 100 µM (inactive) | > 100 µM (inactive) | > 100 µM (inactive) | –
Cc1ccc(S(=O)(=O)c2ccc([N+](=O)[O-])o2)cc1 | 2.51 µM (inactive) | 3.66 µM (inactive) | 1.17 | 2.53 µM (inactive) | 4.43 µM (inactive) | 1.83 µM (inactive) | 0.337 µM (active) | 10.8 µM (inactive) | 1.76 µM (inactive) | 2.27 µM (inactive) | 1.6 µM (inactive) | 1.65 µM (inactive) | 1.98 µM (inactive) | 9.89 µM (inactive) | 7.73 µM (inactive) | 20.1 µM (inactive) | 0.468 µM (active) | 1.57 µM (inactive) | 1.44 µM (inactive) | –
O=[N+]([O-])/C(C(Cl)=C(Cl)Cl)=C(\Nc1cccc2cccnc12)Sc1ccccc1 | 21.9 µM (inactive) | 22.9 µM (inactive) | 17.5 | 13.4 µM (inactive) | 12.6 µM (inactive) | 39.3 µM (inactive) | 12.9 µM (inactive) | 28.6 µM (inactive) | 11.4 µM (inactive) | 23.1 µM (inactive) | 18.8 µM (inactive) | 31.5 µM (inactive) | 20.4 µM (inactive) | 17.1 µM (inactive) | 22.2 µM (inactive) | 31.6 µM (inactive) | 18 µM (inactive) | – | 18.9 µM (inactive) | –
CC(C#N)Nc1ccc(Oc2ccc(C(C)(C)c3ccc(Oc4ccc(NC(C)C#N)cc4)cc3)cc2)cc1 (stereo not drawn) | > 100 µM (inactive) | – | > 100 | 18 µM (inactive) | > 100 µM (inactive) | > 100 µM (inactive) | 16.5 µM (inactive) | > 100 µM (inactive) | > 100 µM (inactive) | > 100 µM (inactive) | 79.4 µM (inactive) | – | > 100 µM (inactive) | > 100 µM (inactive) | > 100 µM (inactive) | > 100 µM (inactive) | > 100 µM (inactive) | > 100 µM (inactive) | 5.08 µM (inactive) | –
CN(C)CCCNC(=O)c1cc2/c(=C\c3ccc(N(C)C)cc3)c3ccccc3n2[n+]1C | 63.7 µM (inactive) | > 100 µM (inactive) | > 100 | > 100 µM (inactive) | 24.7 µM (inactive) | 21.4 µM (inactive) | 34.8 µM (inactive) | – | 15.4 µM (inactive) | 8.77 µM (inactive) | 39.5 µM (inactive) | 20.4 µM (inactive) | 30.8 µM (inactive) | 17.6 µM (inactive) | 1.58 µM (inactive) | 24.8 µM (inactive) | 31.1 µM (inactive) | 90.6 µM (inactive) | > 100 µM (inactive) | 23.3 µM (inactive)
O=C(O)CSc1ncccc1[N+](=O)[O-] | > 100 µM (inactive) | > 100 µM (inactive) | > 100 | > 100 µM (inactive) | > 100 µM (inactive) | > 100 µM (inactive) | > 100 µM (inactive) | > 100 µM (inactive) | > 100 µM (inactive) | > 100 µM (inactive) | > 100 µM (inactive) | – | > 100 µM (inactive) | > 100 µM (inactive) | > 100 µM (inactive) | > 100 µM (inactive) | > 100 µM (inactive) | > 100 µM (inactive) | > 100 µM (inactive) | > 100 µM (inactive)
